Laboratory results reported in patent US8158589B2, “Peptides with the capacity to bind to transforming growth factor β1 (TGF-β1)” (Proyecto Biomedicine Cima, S.L., priority 2003, dated 2012).
Ends that are not written are not given here.

How the values were obtained:
[1] = molecular target: T1, TGF-β1 (Rattus norvegicus, UniProt P17246); experiment: Corneal fibrosis and haze after 1 N NaOH damage, topical eye drops, photographs analysed with ImageJ; type: in vivo, Long-Evans rats; conditions: first experiment, Group 1
T1 construct: from tissue; host or cells: cornea of Long-Evans rats
Excerpt: Male Long-Evans rats aged 10 weeks were used, divided into 5 groups: • Group 1: 12 rats, 6 treated with dexamethasone and 6 treated with mitomycin C • Group 2: 12 rats, 6 treated with p17 of the first formulation (see section 6.1.2.b) and 6 treated with p144 of the first formulation (see section 6.1.2.b) • Group 3: 12 rats, 6 treated with p17 of the second formulation (see section 6.1.2.b) and 6 treated with p144 of the second formulation (see section 6.1.2.b) • Group 4: 12 rats, 6 treated with p17 of the third formulation (see section 6.1.2.b) and 6 treated with p144 of the third formulation (see section 6.1.2.b) • Group 5: 12 rats, 6 treated with p17 of the fourth formulation (see section 6.1.2.b) and 6 treated with p144 of the fourth formulation (see section 6.1.2.b) • Group 6: 12 rats, 6 treated with p17 of the fifth formulation (see section 6.1.2.b) and 6 treated with p144 of the fifth formulation (see section 6.1.2.b)
To perform the damage in the cornea, the animals were anesthetized with isoflurane and a 5 mm Whatman paper disc impregnated in 1 N NaOH for 30 seconds was applied to them in the central part of the eye. After the damage, they were washed with abundant physiological saline serum and an antibiotic ointment was applied to them to prevent possible infections in the affected area.
After conducting several in vivo studies with the previously described groups of animals, it could be concluded that the chemical damage occurring after the application of NaOH for 30 seconds caused an excessive lesion for the study which was to be conducted, therefore it was decided to conduct new experiments reducing the time to 15 seconds.
It was randomly established that the left eye of each animal would act as a control and that the right eye would be the treated eye, such that the same animals acts as a control in addition to being treated. It must be pointed out that all the animals received antibiotic treatment in both eyes daily only during the first week of the study for the purposes of avoiding microbial keratitis.
Starting from 0.15% sodium hyaluronate (Hyabak 10 mL, Thea) without preservatives: • p144: 20 mg were dissolved in 5 ml of eye drops, 40 μl of saturated concentrated NaOH were incorporated, stirring and adding in portions of 5 μl. It was sonicated until solubilization. To adjust the pH, 500 μl of 1M Hepes were added, such that the pH changed from 10.5 to 7 • p144 control: 40 μl of saturated NaOH and 500 μl of 1 M HEPES (final concentration of HEPES 50 mM) • p17: 20 mg were dissolved in 5 ml of the eye drops, it was sonicated until complete solubilization and it was incorporated to the vial with a 10 ml syringe and a blue needle to perforate the filter of the contained (final concentration 2 mg/ml) • p17 control: non-manipulated eye drops • Note: The formulations were maintained at 4° C. throughout the study.
The administration of the treatment was initiated twenty-four hours after the damage. After that time a follow-up of the damage was performed, which consisted of taking photographs at days 0, 7, 14, 21, 28 and 35. To take the photographs the animals were anesthetized with isoflurane. Photographs were taken of both the control eye (left) and of the treated eye (right) with and without fluorescein. The photographs with fluorescein allowed to observe the evolution of the epithelial closure of the generated lesion, whereas the photographs without fluorescein show the evolution of the haze of the lesioned area. […]

[2] = molecular target: T2, TGF-β1 (Homo sapiens, UniProt P01137); experiment: Biopanning of phage-displayed 15-aa peptide library on biotinylated TGF-β1, number of colonies per sequence; type: binding; parameters: purchased Roche; host or cells: added to Mv-1-Lu (CCL-64) mink lung epithelial cells; conditions: clones carrying the sequence among 108 colonies after the last biopanning cycle; approximate indication of affinity for TGF-β1
Excerpt: These libraries comprise a plurality of filamentous bacteriophages (M13), each one containing a peptide genetically fused to a protein of the virus envelope—in this case bound to the N-terminal end of envelope protein pIII (FIG. 1). […] In the phage libraries, the sequence encoding the peptide originates from a sequence degenerated in each one of the 15 positions with the 20 natural amino acids, thus allowing the presentation of 1.1×10^12 possible sequences of 15 amino acids in different phages. The physical ratio, 1:1, between the peptide sequence and the DNA encoding it within the bacteriophage allows the selection (from a broad range of variants) of those sequences that specifically bind to TGF-β1. This process is carried out via an in vitro selection protocol known as “biopanning”.
This technique involves incubating a set of phages representative (to practical effects) of all the 15-aa variants, in a plate blocked with streptavidin (10 μg/ml in 0.1 M NaHCO3, during 2 h at room temperature) to which biotinylated TGF-β1 is added. […] TGF-β1 contacts the peptides carried by the phages at a concentration of […]. After about 12 hours incubation, unbound phages are eliminated by 5 washings with PBS/Tween (phosphate buffered saline/polyoxyalkylene derivatives of sorbitan fatty acid esters). […] The eluted phages are then amplified by infection in a bacterial strain (E. coli). The process is repeated three cycles so that an enrichment in the content of phages which specifically bind, and with high affinity, to TGF-β1 is achieved (FIG. 3). […] Thus, the phages selected in each cycle show more and more affinity for TGF-β1. At the end of the process, phages which have been selected for their affinity for TGF-β1, are sequenced by using primers, after isolation by tetracycline resistance of the genetically modified phages after infecting E. coli cells. […] The number of times which a sequence is repeated, corresponding to a 15 amino acids peptide carried by each clone, from the total of sequenced colonies is an indication of the degree of relative affinity of said 15 amino acids sequence for TGF-β1.
The selection of clones, obtained from the “biopanning”, was carried out by selection of the bacterial colonies infected with the phages in the presence of a bacterial antibiotic; the bacteria resistance is acquired by a tetracycline resistance gene encoded by the phage genome. Thus, only those colonies infected with bacteriophages are able to grow. This means that each colony contains the genome of only one phage coding for only one peptide presented in its surface.
A total number of 108 colonies of phage-infected bacteria were obtained from the last selection cycle of “biopanning”. The sequence of the regions coding for the peptides present in the pIII protein was carried out using primers identified with SEQ ID NO: 23. This table also reflects the number of colonies (clones) carrying said sequences.
The number of clones (colonies) of each sequence gives an approximate indication of the degree of affinity of the peptide for TGF-β1, that is, the more colonies the more binding affinity.

[3] = molecular target: T2, TGF-β1; type: cell-based; parameters: purchased Roche; host or cells: added to Mv-1-Lu (CCL-64) mink lung epithelial cells; conditions: Mv-1-Lu proliferation
Excerpt: The cell line Mv-1-Lu (CCL-64, […], Virginia, USA) derives from mink pulmonary epithelium, grows as a monolayer, and responds to the presence of TGF-β1 by decreasing its proliferation (FIG. 5). Thus, the peptide-mediated inhibition of this cytokine is able to restore cell growth and reflects the capacity of the different peptides to inhibit the biological activity of TGF-β1 in vitro. The peptides tested were obtained by peptide synthesis, in accordance to conventional procedures (Merrifield R B. J Am Chem Soc 1963; 85:2149-2154; Atherton E et al. J Chem Soc Perkin Trans 1981; 1:538-546).
The Mv-1-Lu cells are cultured to confluence in complete medium [RPMI-1640 supplemented with L-glutamine, sodium pyruvate, antibiotics and 10% fetal bovine serum (FBS)] at 37° C. and in 5% CO2 in 162 cm^2 bottles (Costar Corporation, CA, USA). Following trypsinization, the cells are cultured in 200 μl of complete medium in 96-well plates at an initial density of 5,000 cells/well at 37° C. and in 5% CO2 during 6 hours to ensure adhesion. Then, different concentrations of the peptides to be tested are added, starting from 200 μg/ml, and following 200 pg/ml of TGF-β1 (Roche) are added. After 12 hours of incubation 1 μCi of methyl-3H-thymidine (Amersham Life Science, Buckinghamshire, United Kingdom) is added per well in 25 μl of clean medium (RPMI-1640). The plate is incubated for 12 more hours under the same conditions. Finally, the cells are harvested (Filtermate 196 Harvester, Packard), transferring the tritiated thymidine, incorporated in the course of DNA synthesis, to plates (UniFilter-96 GF/C®, Perkin Elmer). Following the addition of scintillation fluid, the radioactivity was quantified using a scintillation counter (Top Count, Microplate Scintillation Counter, Packard). As positive and negative control, use was made of the incorporation of tritiated thymidine in the absence and presence of TGF-β1, respectively. The inhibition of TGF-β1 activity in this test was calculated based on the following formula: […]
The negative control represents the incorporation of tritiated thymidine in the presence of TGF-β1 but in the absence of peptide, whereas the positive control refers to the incorporation of tritiated thymidine in the absence of TGF-β1 and peptide. Thus, according to the capacity of the peptides to revert the cytokine repressor effect on Mv-1-Lu cell line proliferation, percentage of TGF-β1 biological activity inhibition by the peptides can be measured (Table 2).
Comparisons have been made of the activity of truncated peptides (derived from peptide sequence SEQ ID NO: 17) versus the complete sequence, in terms of the capacity to revert the suppressor effect of TGF-β1 upon proliferation of the Mv-1-Lu cell line. To this effect, and to determine the minimum sequence of peptide SEQ ID NO: 17 capable of inhibiting the biological activity of TGF-β1 in vitro, truncated versions of this peptide were synthesized, with truncation at the N-terminal end, C-terminal end or in both ends of the molecule. The peptides tested were obtained by peptide synthesis following conventional procedures (Merrifield R B. J Am Chem Soc 1963; 85:2149-2154; Atherton E et al. J Chem Soc Perkin Trans 1981; 1:538-546). Following the same methodology described in Example 2, the activity of truncated peptides versus the complete sequence of the peptide SEQ ID NO: 17 was quantified, in terms of a proliferation assay of the Mv-1-Lu cell line.

[4] = molecular target: T3, TGF-β1 (Mus musculus, UniProt P04202); experiment: Model of acute liver damage induced by CCl4, type I collagen mRNA by real time PCR; type: in vivo, mice; parameters: key to % Inhibition of type I collagen mRNA induction (in vivo TGF-β1 biological activity): Neg: negative; conditions: for % Inhibition of type I collagen mRNA induction (in vivo TGF-β1 biological activity): Balb/C mice, oral CCl4, 50 μg of peptide every 24 h, sacrifice after 72 hours; for inhibition of the biological activity of TGF-β1 in vivo (in words): acute liver damage, type I collagen mRNA
T3 construct: from tissue; host or cells: liver of Balb/C mice (CCl4 model); lung of C57BL/6 mice (bleomycin model)
Procedure: Acute liver damage generates a cascade of effects and physiological responses, including elevations in the concentrations of TGF-β1. This elevation is responsible for the expression of the type I collagen gene, among others. In this model of acute liver damage, female Balb/C mice weighing 25 to 30 g, were orally administered a dose of 2 μl of CCl4 (per gram of body weight) dissolved in an equivalent volume of corn oil (volumetric ratio of 1:1). The control group received an equivalent volume of corn oil only, and the treated groups received (following the single oral administration of CCl4 in corn oil) 50 μg of peptide in 500 μl of 1% physiological saline solution in DMSO (dimethyl sulfoxide) every 24 h. After 72 hours all animals were sacrificed, and the liver samples were processed. To evaluate mRNA expression, liver tissue was frozen in liquid nitrogen and stored at −80° C. until further use. Other liver tissue samples were stored in OCT® or Tissue-Tek® (Sakura Finetek B.V.) and processed in the same way as the samples used for mRNA studies. Other liver samples were fixed in 10% buffered formalin solution, embedded in paraffin and processed for their histological evaluation. The amount of mRNA encoding type I collagen was quantified in all groups using a quantitative polymerase chain reaction (PCR) technique. […] The capacity of the testing peptides to block the acute damage, as assessed by measuring the levels of induced type I collagen mRNA was quantified by real time PCR. […] The peptides tested were obtained by conventional solid peptide synthesis procedures (Merrifield R B. J Am Chem Soc 1963; 85:2149-2154; Atherton E et al. J Chem Soc Perkin Trans 1981; 1:538-546).

T2 sequence (P01137 279-390 limits assumed, species assumed): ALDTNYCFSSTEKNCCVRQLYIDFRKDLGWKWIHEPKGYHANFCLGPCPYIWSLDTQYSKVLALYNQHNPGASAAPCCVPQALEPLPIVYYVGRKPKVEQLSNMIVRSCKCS
T3 sequence (P04202 279-390 limits assumed): as the sequence (P01137 279-390 limits assumed, species assumed) above, with A75S counted along it
T1 sequence (P17246 279-390 limits assumed): as the sequence (P01137 279-390 limits assumed, species assumed) above, with A75S counted along it

| Compound | clinical efficacy in the treatment of corneal fibrosis [1] | No. colonies [2] | inhibition of the biological activity of TGF-β1 in vitro (in words) [3] | % Inhibition of type I collagen mRNA induction (in vivo TGF-β1 biological activity) [4] | inhibition of the biological activity of TGF-β1 in vivo (in words) [4] |
| --- | --- | --- | --- | --- | --- |
| CO[C@@]12[C@H](COC(N)=O)C3=C(C(=O)C(C)=C(N)C3=O)N1C[C@@H]1N[C@@H]12 [mitomycin C] | correspond to those described in the scientific literature | – | – | – | – |
| RLAHSHRHRSHVALT [SEQ ID NO: 4] | – | 18 | inhibitory capacity | 51.30 ± 15.3% | inhibitory capacity |
| MPLSRYWWLFSHRPR [SEQ ID NO: 18] | – | 1 | only inhibitory activity | Neg | – |
| WHKYFLRRPLSVRTR [SEQ ID NO: 11] | – | 4 | inhibitory capacity | 39.34 ± 21.9% | inhibitory capacity |
| RKWFLQHRRMPVSVL [SEQ ID NO: 13] | – | 6 | inhibitory capacity | 32.70% | inhibitory capacity |
| RFFTRFPWHYHASRL [SEQ ID NO: 3] | – | 41 | only inhibitory activity | 2.09% | much less active |
